In patent US20250084041A1, “ANTIMICROBIAL COMPOUNDS AND METHODS” (Curza Global, LLC, priority 2021, published 2025):
pIC50: −log10 of the molar value. Counter-ions that a name gives are not always drawn. Like-named read-outs stand apart in the source and are kept apart here.

What was measured:
[1] = system: E. coli (Ec); test: Broth microdilution MIC, E. coli; format: cell-based; conditions: Escherichia coli, read-out: E. coli + bicarb 25 (MIC)
Method: (§1) A certified BSL-2 laboratory was used for testing. Compounds were evaluated using the broth microdilution minimum inhibitory concentration (MIC) and minimum bactericidal concentration (MBC) assays defined by Clinical and Laboratory Standards Institute (CLSI) in the M26-A guideline against S. aureus (Sa), E. coli (Ec), K. pneumoniae (Kp), A. baumannii (Ab), E. faecalis (Ef) and P. aeruginosa (Pa).
(§2) MICs were determined using the Clinical Laboratory and Standards Institute (CLSI) Broth Microdilution Method with slight modification. Clinical and Laboratory Standards Institute (2012). “Methods for dilution antimicrobial susceptibility tests for bacteria that grow aerobically; approved standard, 9th ed. M07-A9. Clinical and Laboratory Standards Institute, Wayne, PA.” Serial two-fold dilutions of compounds are prepared in sterile clear round-bottom 96-well plates.
(§3) To prepare microdilution trays, two-fold dilutions of antimicrobial agent are prepared in growth medium: Cation-Adjusted Mueller-Hinton Broth (CAMHB), or CAMHB supplemented with sodium bicarbonate (25 mM final concentration prepared from a 1.0 M stock solution) or CAMHB supplemented with heat inactivated human serum (Fisher Cat. #BP2657100) 0-50% by adding 200 μL of the highest concentration to be tested (64 μg/mL, for example) in row A, mixing and transferring 100 μL from row A to 100 μL growth medium in row B, then repeating the mixing and transferring through row H of the 96-well plate, discarding the excess 100 μL remaining. This slight modification to the CLSI protocol enables evaluation of MICs for 3 compounds per plate in triplicate, albeit with only 8 compound dilutions (CLSI protocol enables 2 compounds in triplicate with 10 dilutions). Bacterial suspensions are added to a final concentration of 5×10^4 CFU/well by adding 5 μL of a 1:10 dilution of a 0.5 McFarland suspension (1×10^8 CFU/mL) for each bacterium evaluated. Bacterial suspensions were prepared using the growth method described by CLSI. Well-isolated colonies (3-5 from an agar plate) were selected using a sterile loop and used to inoculate a tube containing 4 mL of CAMHB. The cultures are incubated at 35±2° C. until it achieves or exceeds the turbidity of the 0.5 McFarland standard, determined by measuring A600nm (usually two to six hours). When growth exceeds a 0.5 McFarland standard, the turbidity is adjusted with broth to be equivalent to a 0.5 McFarland standard.

[2] = system: E. coli S30 extract; test: E. coli S30 extract: inhibition of bacterial protein synthesis (luciferase); format: biochemical; conditions: 37° C. 1 hour
Method: E. coli S30 extract: Inhibition of bacterial protein synthesis was determined using the E. coli S30 Extract System for Circular DNA (Promega catalog #L-2010) and Luciferase Assay Reagent (Promega catalog #E1500) with slight modifications to a published protocol. Fyfe, C., Sutcliffe, J. A. and Grossman, T. H. (2012) “Development and characterization of a Pseudomonas aeruginosa in vitro coupled transcription-translation assay system for evaluation of translation inhibitors” J. Microbiol. Methods 90(3), 256-261.
Compounds were serial diluted in 0.5 mL microcentrifuge tubes by mixing and transferring 50 μL from the highest concentration to 50 μL of water, mixing and transferring 50 μL of this 2-fold dilution to 50 μL of water. This mixing and transferring was repeated so that there are a total of 8 tubes with serial dilutions of compound at 10× the desired screening concentration that are ultimately diluted to 1× by the addition of S30 luciferase synthesis mixture. Serial dilutions of compounds were added (2 μL) to wells in a black round bottom 96-well plate. Water (2 μL) was used as a “no inhibitor” control in 4 wells/plate. No DNA control reaction mixture (20 μL; see below) was used as a control in 4 wells/plate for background luminescence. S30 luciferase synthesis mixture (18 μL; see below) was added to wells with compounds or water mixture and incubated at 37° C. for 1 hour. Reactions were stopped by transferring to 4° C. refrigerator for 5 minutes then 25 μL of luciferase activity mix was added. Luminescence was measured using a BioTek Synergy HTX plate reader. % Inhibition was determined relative to no inhibitor controls.
• 445 μL S30 extract, circular • 712 μL S30 Premix without amino acids • 4.45 μL pBESTluc™ DNA (1 μg/μL) • 78 μL complete amino acid mixture • 267 μL water
• 20 μL S30 extract, circular • 32 μL S30 Premix without amino acids • 7 μL complete amino acid mixture • 21 μL water

[3] = system: S. aureus (Sa); test: Broth microdilution MIC, S. aureus; format: cell-based; conditions: Staphylococcus aureus, read-out: Sa + bicarb 25 (MIC)
Method: as §1, §2, §3

[4] = system: A. baumannii (Ab); test: Broth microdilution MIC, A. baumannii; format: cell-based; conditions: Acinetobacter baumannii, read-out: Ab + bicarb 25 (MIC)
Method: as §1, §2, §3

[5] = system: P. aeruginosa (Pa); test: Broth microdilution MIC, P. aeruginosa; format: cell-based; conditions: Pseudomonas aeruginosa, read-out: Pa + bicarb 25 (MIC)
Method: as §1, §2, §3

[6] = system: E. faecalis (Ef); test: Broth microdilution MIC, E. faecalis; format: cell-based; conditions: Enterococcus faecalis, read-out: Ef + bicarb 25 (MIC)
Method: as §1, §2, §3

[7] = target: Rabbit Reticulocyte Lysate; test: Rabbit Reticulocyte Lysate: inhibition of eukaryotic protein synthesis (luciferase); format: biochemical; conditions: 30° C. 90 minutes, read-out: Retic. IC50
Method: Inhibition of eukaryotic protein synthesis was determined using the Rabbit Reticulocyte Lysate System, Nuclease-Treated from Promega (catalog #L-4960) with slight modifications to the manufacturer's protocol. Compounds were serial diluted in 0.5 mL microcentrifuge tubes by mixing and transferring 50 μL from the highest concentration to 50 μL of water, mixing and transferring 50 μL of this 2-fold dilution to 50 μL of water. This mixing and transferring was repeated so that there are a total of 8 tubes with serial dilutions of compound at 10× the desired screening concentration that are ultimately diluted to 1× by the addition of rabbit reticulocyte luciferase synthesis mixture. Serial dilutions of compounds were added ([…]) to wells in a black round bottom 96-well plate. Water (2.5 μL) was used as a “no inhibitor” control in 4 wells/plate. No RNA control reaction mixture ([…]; see below) was used as a control in 4 wells/plate for background luminescence. Rabbit reticulocyte luciferase synthesis mixture (22.5 μL; see below) was added to wells with compounds or water mixture and incubated at 30° C. for 90 minutes. Luciferase assay reagent (25 μL) was added with luminescence measured using a BioTek Synergy HTX plate reader. % Inhibition was determined relative to no inhibitor controls.
• 1,000 μL rabbit reticulocyte lysate • 5.7 μL Luciferase Control RNA (1 μg/μL) • 26 μL complete amino acid mixture • 395 μL water
• 70 μL rabbit reticulocyte lysate • 2 μL complete amino acid mixture • 28 μL water

[8] = E. coli, CAMHB supplemented with sodium bicarbonate 25 mM
[9] = S. aureus, CAMHB supplemented with sodium bicarbonate 25 mM
[10] = A. baumannii, CAMHB supplemented with sodium bicarbonate 25 mM
[11] = P. aeruginosa, CAMHB supplemented with sodium bicarbonate 25 mM
[12] = E. faecalis, CAMHB supplemented with sodium bicarbonate 25 mM

SMILES	MIC [1] [µg/mL]	pIC50 [2]	MIC [3] [µg/mL]	MIC [4] [µg/mL]	MIC [5] [µg/mL]	MIC [6] [µg/mL]	pIC50 [7]	MIC [1, 8] [µg/mL]	MIC [3, 9] [µg/mL]	MIC [4, 10] [µg/mL]	MIC [5, 11] [µg/mL]	MIC [6, 12] [µg/mL]
CC(C)(N)C(=O)N1CCN(C(=O)Nc2ccn(C3CCC(CN[C@H]4CC[C@H](N)CC4)CC3)c(=O)n2)CC1 (mixture of isomers) [Compound 11, 4-(2-Amino-2-methylpropanoyl)-N-(1-(4-(((trans-4-aminocyclohexyl)amino)methyl)cyclohexyl)-2-oxo-1,2-dihydropyrimidin-4-yl)piperazine-1-carboxamide hydrochloride salt]	< 8	> 6.30	< 8	> 32	> 32	< 8	≤ 6.00					
CN(CC1CC=C(n2ccc(NC(=O)N3CCN(C(=O)C(C)(C)N)CC3)nc2=O)CC1)[C@H]1CC[C@H](N)CC1 (single isomer, unassigned) [Compound 32, trans-4-(2-Amino-2-methylpropanoyl)-N-(1-(4-(((4-aminocyclohexyl)(methyl)amino)methyl)cyclohex-1-en-1-yl)-2-oxo-1,2-dihydropyrimidin-4-yl)piperazine-1-carboxamide hydrochloride salt]	< 8	> 6.30	< 8	> 32	> 32	8 to 32	≤ 6.00					
CC(C)(N)C(=O)N1CCN(C(=O)Nc2ccn(C3=CCC(CN4C[C@@H]5[C@@H](N)[C@@H]5C4)CC3)c(=O)n2)CC1 (single isomer, unassigned) [Compound 33, 4-(2-Amino-2-methylpropanoyl)-N-(1-(4-(((exo)-6-amino-3-azabicyclo[3.1.0]hexan-3-yl)methyl)cyclohex-1-en-1-yl)-2-oxo-1,2-dihydropyrimidin-4-yl)piperazine-1-carboxamide hydrochloride salt]		> 6.30					≤ 6.00	< 8	< 8	8 to 32	> 32	< 8
CC(C)(N)C(=O)N1CCN(C(=O)Nc2ccn(C3=CCC(CN4CCC5(CC4)CC(N)C5)CC3)c(=O)n2)CC1 (single isomer, unassigned) [Compound 36]		> 6.30					≤ 6.00	< 8	< 8	8 to 32	8 to 32	< 8
CC1(N)CCN(CC2CCC(n3ccc(NC(=O)N4CCN(C(=O)C(C)(C)N)CC4)nc3=O)CC2)CC1 (stereo not drawn) [Compound 15, 4-(2-amino-2-methylpropanoyl)-N-(1-(4-((4-amino-4-methylpiperidin-1-yl)methyl)cyclohexyl)-2-oxo-1,2-dihydropyrimidin-4-yl)piperazine-1-carboxamide hydrochloride salt]		> 6.30		> 32		> 32	≤ 6.00					
CC(C)(N)C(=O)N1CCN(C(=O)Nc2ccn(C3=CCC(CN4C[C@@H]5[C@H](N)[C@@H]5C4)CC3)c(=O)n2)CC1 (stereo partly drawn) [Compound 22, endo-4-(2-Amino-2-methylpropanoyl)-N-(1-(4-((6-amino-3-azabicyclo[3.1.0]hexan-3-yl)methyl)cyclohex-1-en-1-yl)-2-oxo-1,2-dihydropyrimidin-4-yl)piperazine-1-carboxamide hydrochloride salt]		> 6.30	< 8	< 8	> 32	8 to 32	≤ 6.00					
CC1(N)CCN(CC2CC=C(n3ccc(NC(=O)N4CCN(C(=O)C(C)(C)N)CC4)nc3=O)CC2)CC1 (stereo not drawn) [Compound 27, 4-(2-Amino-2-methylpropanoyl)-N-(1-(4-((4-amino-4-methylpiperidin-1-yl)methyl)cyclohex-1-en-1-yl)-2-oxo-1,2-dihydropyrimidin-4-yl)piperazine-1-carboxamide hydrochloride salt]		> 6.30	< 8	8 to 32	> 32	< 8	≤ 6.00					
CC(C)(N)C(=O)N1CCN(C(=O)Nc2ccn(C3=CCC(CN4CCC(N)CC4)CC3)c(=O)n2)CC1 (stereo not drawn) [Compound 28, 4-(2-Amino-2-methylpropanoyl)-N-(1-(4-((4-aminopiperidin-1-yl)methyl)cyclohex-1-en-1-yl)-2-oxo-1,2-dihydropyrimidin-4-yl)piperazine-1-carboxamide hydrochloride salt]		6.00 to 6.30		> 32		> 32	≤ 6.00					
CCN(CC1CC=C(n2ccc(NC(=O)N3CCN(C(=O)C(C)(C)N)CC3)nc2=O)CC1)[C@H]1CC[C@H](N)CC1 (stereo partly drawn) [Compound 31, trans-4-(2-Amino-2-methylpropanoyl)-N-(1-(4-(((4-aminocyclohexyl)(ethyl)amino)methyl)cyclohex-1-en-1-yl)-2-oxo-1,2-dihydropyrimidin-4-yl)piperazine-1-carboxamide hydrochloride salt]	< 8	> 6.30	< 8		> 32	< 8	≤ 6.00					
CC(C)(N)C(=O)N1CCN(C(=O)Nc2ccn([C@H]3CC[C@H](CN(CCF)[C@H]4CC[C@H](N)CC4)CC3)c(=O)n2)CC1 [Compound 49, trans-trans-4-(2-amino-2-methylpropanoyl)-N-(1-(4-(((4-aminocyclohexyl)(2-fluoroethyl)amino)methyl)cyclohexyl)-2-oxo-1,2-dihydropyrimidin-4-yl)piperazine-1-carboxamide hydrochloride salt]	< 8	> 6.30	< 8	> 32		8 to 32	≤ 6.00					
